The record followed here is ChEMBL document CHEMBL1201862, “PubChem BioAssay data set” (2004).

Some test systems named below: A498; BT-549; CAKI-1; EKVX; HCC 2998; HCT-15; KM12; NCI-H522; NCI/ADR-RES; OVCAR-3; OVCAR-5; OVCAR-8; SF-295; SK-MEL-28; SK-MEL-2; SNB-75; SR; TK-10; UACC-257; UO-31.
What all share (assay): DTP human tumour cell line panel, 48 h

Structures are written as SMILES.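 48-hour exposure; five concentrations; linearly interpolated endpoints. GI50 marks 50% less growth.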 Calls of active or inactive are those of the source. No stated cut-off is given here; in the data, active = GI50 up to about 1.1 µM and inactive = higher.

Consider `NC1(C(=O)OCc2ccccc2)CCCC1`, for which the GI50 in the test with A498 is 41.3 µM (inactive); with BT-549, 17.1 µM (inactive); with CAKI-1 it was 19.4 µM (inactive); with EKVX it was 24.5 µM (inactive); in the test on HCC 2998 it was 28 µM (inactive); in the test on HCT-15, 22.9 µM. Moreover, the GI50 in the test on KM12 was 26 µM (inactive); with NCI-H522, 7.06 µM (inactive); in the test on NCI/ADR-RES, 28.6 µM (inactive); with OVCAR-3, 11.6 µM (inactive); with OVCAR-5, 28.4 µM (inactive); in the test with OVCAR-8, 12.9 µM (inactive). Besides, the GI50 with SF-295 was 15.9 µM (inactive); in the test on SK-MEL-28, 22.6 µM (inactive); in the test on SK-MEL-2, 17.9 µM (inactive); in the test on SNB-75 it was 18 µM (inactive); in the test with SR, 33.5 µM (inactive); in the test on TK-10, 82.4 µM (inactive). Moreover, the GI50 is 19.2 µM (inactive) in the test with UACC-257 and 15.6 µM (inactive) in the test with UO-31.

For `C=C1c2nc3ccccc3n2C=C(c2ccc(C)cc2)N1c1ccc(C)cc1`, the GI50 with A498 is > 100 µM (inactive); in the test on BT-549 it was 51.6 µM (inactive); in the test on CAKI-1, > 100 µM (inactive); in the test on EKVX it was 46.6 µM (inactive); in the test on HCC 2998 it was 22.5 µM (inactive); with HCT-15 it was 23.8 µM. Besides, the GI50 in the test on KM12 was 23.8 µM (inactive); with NCI-H522, 17.2 µM (inactive); with NCI/ADR-RES, 17.9 µM (inactive); with OVCAR-3 it was 64.7 µM (inactive); with OVCAR-5, > 100 µM (inactive); in the test with OVCAR-8 it was 18.9 µM (inactive). Further, the GI50 is 50.9 µM (inactive) in the test on SF-295; > 100 µM (inactive) with SK-MEL-28; 47.5 µM (inactive) with SK-MEL-2; > 100 µM (inactive) in the test with SNB-75; 11.5 µM (inactive) in the test on SR; > 100 µM (inactive) in the test on TK-10. Further, the GI50 is 67.3 µM (inactive) in the test on UACC-257 and 46 µM (inactive) in the test on UO-31.

In the case of `CC(=O)OCC1OC(SC2=N/C(=C\c3cc4c(=O)c5ccccc5sc4s3)C(=O)N2c2ccccc2)C(OC(C)=O)C(OC(C)=O)C1OC(C)=O` (stereo not given), the GI50 was > 100 µM (inactive) in the test with A498; 63.8 µM (inactive) in the test on BT-549; > 100 µM (inactive) in the test with CAKI-1; 65 µM (inactive) in the test with EKVX; > 100 µM (inactive) with HCC 2998; greater than 100 µM in the test with HCT-15. Also, the GI50 was > 100 µM (inactive) in the test on KM12; > 100 µM (inactive) in the test with NCI-H522; > 100 µM (inactive) in the test on NCI/ADR-RES; > 100 µM (inactive) in the test on OVCAR-3; 62.4 µM (inactive) in the test with OVCAR-5; > 100 µM (inactive) in the test on OVCAR-8. Also, the GI50 in the test with SF-295 was > 100 µM (inactive); in the test with SK-MEL-28, > 100 µM (inactive); in the test on SK-MEL-2, 32 µM (inactive); with SNB-75, 65.8 µM (inactive); in the test with SR, 42.2 µM (inactive); in the test on TK-10, > 100 µM (inactive). Moreover, the GI50 with UACC-257 and in the test with UO-31 was > 100 µM (inactive) in each case.

With `C/C(=N\Nc1nc2ccccc2s1)c1cc(C)ncn1`, the GI50 with A498 was 9.93 µM (inactive); in the test on BT-549, 6.79 µM (inactive); with CAKI-1 it was 0.145 µM (active); with EKVX, 0.269 µM (active); in the test with HCC 2998, 1.72 µM (inactive); with HCT-15, 0.394 µM. Moreover, the GI50 was 0.767 µM (active) in the test on KM12; 0.07 µM (active) in the test on NCI-H522; 0.371 µM (active) with NCI/ADR-RES; 0.408 µM (active) with OVCAR-3; 1.27 µM (inactive) with OVCAR-5; 0.29 µM (active) with OVCAR-8. Besides, the GI50 in the test on SF-295 was 2.73 µM (inactive); in the test on SK-MEL-28, 3.09 µM (inactive); in the test with SK-MEL-2, 3.78 µM (inactive); in the test on SNB-75 it was 1.34 µM (inactive); in the test on SR, 0.259 µM (active); in the test with TK-10, 15.3 µM (inactive). Also, the values for the GI50 in the test on UACC-257 and in the test on UO-31 were 0.29 µM (active) and 0.389 µM (active), respectively.

As for `O=C1/C(=C/c2c(Cl)[nH]c3ccccc23)c2ccccc2N1c1ccccc1`, the GI50 is 10.4 µM (inactive) in the test on A498; 3.29 µM (inactive) with BT-549; 8.3 µM (inactive) in the test with CAKI-1; 3.16 µM (inactive) in the test on EKVX; 8.97 µM (inactive) with HCC 2998; 3.14 µM in the test with HCT-15. For the same molecule, the GI50 with KM12 is 3.86 µM (inactive); in the test on NCI-H522, 3.05 µM (inactive); in the test with NCI/ADR-RES it was 2.24 µM (inactive); in the test on OVCAR-3 it was 1.79 µM (inactive); with OVCAR-5, 12.9 µM (inactive); in the test on OVCAR-8, 4.35 µM (inactive). In addition, the GI50 with SF-295 is 2.44 µM (inactive); in the test with SK-MEL-28, 10.4 µM (inactive); with SK-MEL-2 it was 3.36 µM (inactive); in the test on SNB-75, 6.81 µM (inactive); in the test on SR, 3.64 µM (inactive); with TK-10 it was 11.2 µM (inactive). The GI50 in the test with UACC-257 was 11.6 µM (inactive); in the test on UO-31, 6.46 µM (inactive).

`CC(C)(O)CCc1ccc(O)c2c(=O)c3c(O)c4c(cc3oc12)O[C@H]1OC=C[C@@]41O` [AUSTOCYSTIN D]: the GI50 is < 0.01 µM (active) in the test on A498; 9.06 µM (inactive) in the test with BT-549; < 0.01 µM (active) with CAKI-1; 0.255 µM (active) in the test with EKVX; < 0.01 µM (active) with HCC 2998; less than 0.01 µM in the test with HCT-15. Moreover, the GI50 in the test on KM12 is < 0.01 µM (active); in the test with NCI-H522 it was 5.27 µM (inactive); with NCI/ADR-RES, < 0.01 µM (active); with OVCAR-3 it was < 0.01 µM (active); with OVCAR-5 it was 0.0615 µM (active); in the test with OVCAR-8, < 0.01 µM (active). Further, the GI50 was 8.87 µM (inactive) with SF-295; 0.286 µM (active) in the test on SK-MEL-28; < 0.01 µM (active) with SK-MEL-2; 0.0562 µM (active) in the test on SNB-75; 1.23 µM (inactive) in the test with SR; < 0.01 µM (active) in the test with TK-10. Further, the values for the GI50 in the test on UACC-257 and in the test with UO-31 were 0.0184 µM (active) and < 0.01 µM (active), respectively.

A word on the GI50: it is the concentration giving 50% growth inhibition.
